Structures can show the parent of a compound that is named as a salt.

This experiment is described as follows: Free radical-scavenging/antioxidant assay (DPPH). Format: biochemical. As to conditions: 50 μM DPPH in 80% methanol, absorbance at 520 nm, 24 h time point (steady state). The protocol:
Nitrone compounds of the present invention were tested for their free-radical scavenging/antioxidant activity in an in vitro assay that was accepted by those skilled in the art as a model for conditions involving the generation of free radicals. The assay was based on a reaction between a free-radical donor, 2,2-diphenyl-1-picrylhydrazyl (DPPH), and a radical scavenger/antioxidant to be tested for free-radical scavenging activity. Upon donation of the free-radical electron to the purported radical scavenger, the peak vwasible absorbance of DPPH (515-520 nm) decreases so that optical density readings at thwas part of the vwasual spectrum reflect the progression of the following reaction: DPPH•+AH →DPPH—H+A• where AH was a hypothetical radical scavenger/antioxidant. The assay was based on a protocol originally detailed in Brand-Williams, W. et al., 1995, Use of a Free Radical Method to Evaluate Antioxidant Activity, Lebensm. Wwass. Technol., 28:25-30, with further modifications described in L. R. Fukumoto and G. Mazza, 2000, Assessing Antioxidant and Prooxidant Activities of Phenolic Compounds, J. Agric. Food Chem., 48:3597-3604.
The antioxidant assay was performed using Perkin-Elmer 96-well, clear-bottom, black-wall plates (ordered from E & K Scientific Products) and a Tecan Safire absorbance plate reader. The positive controls were Trolox (6-hydroxy-2,5,7,8-tetramethylchromane-2-carboxylic acid, Sigma-Aldrich), BHA (2(3)-tert-butylhydroquinone monomethyl ether, Sigma-Aldrich), PBN (C-(phenyl)-N-(tert-butyl)nitrone, Sigma-Aldrich) and S-PBN (C-(2-sulfophenyl)-N-(tert-butyl)nitrone, sodium salt, prepwered according to E. G. Janzen and R. V. Shetty, 1979, Tetrahedron Lett., 35: 3229-32), and the negative control (i.e., vehicle) was DMSO. In brief, 2 μL of 100×DMSO stock of the desired final concentration of each control or nitrone compound to be tested in the same batch was added to a separate well. To each well was then added 198 μL of a freshly made 50 μM DPPH (Sigma-Aldrich) solution in 80% methanol using a multi-channel pipette. The absorbance was immediately read on the plate reader at 520 nm and thereafter read periodically to assess kinetics until all reactions reached completion (i.e., steady state). Since the steady-state point was 24 h, the assay results were shown from the 24 h time point. The absorbance at 520 nm (OD) was plotted versus the concentrations of the controls and nitrone compounds to assess dose-response and interpolate the EC50 values of the controls and test compounds.
For orientation: Loss of DPPH colour is used to gauge radical scavenging.
On to `CC(C/C=[N+](\[O-])C(C)(C)C)Sc1ccccc1` (stereo not drawn) [Example 22, N-tert-Butyl-C-2-(phenylsulfanyl)propyl nitrone], for which the EC50 (as a rule, the midpoint of the concentration-response curve) is under 10 µM.

As for `COc1ccc(OC/C=[N+](\[O-])C(C)(C)C)cc1` [Example 4, N-tert-Butyl-C-[(4-methoxy-phenoxy)methyl]nitrone], the EC50 was in the range of 10 to 50 µM.

`CC(C)(C)/[N+]([O-])=C/COc1ccccc1` [Example 1, N-tert-Butyl-C-(phenoxymethyl)nitrone] showed an EC50 of 10 to 50 µM.

The compound `CC(C)(C)/[N+]([O-])=C/c1ccccc1S(=O)(=O)O` [SPBN, C-(2-sulfophenyl)-N-(tert-butyl)nitrone, sodium salt, reference compound] registered an EC50 of over 1000 µM.

With `Cc1ccc(C(C)C)c(OC/C=[N+](\[O-])C2CCCCC2)c1` [Example 8, N-Cyclohexyl-C-[(2-isopropyl-5-methyl-phenoxy)methyl]nitrone], the EC50 lay within 10 to 50 µM.

For the compound `CC(C)(C)/[N+]([O-])=C/CCOc1ccccc1` [Example 17, N-tert-Butyl-C-2-(phenoxy)ethyl nitrone], the EC50 lay within 10 to 50 µM.

Compound `[O-]/[N+](=C\CCOc1ccccc1)C1CCCCC1` [Example 18, N-Cyclohexyl-C-2-(phenoxy)ethyl nitrone] gave an EC50 of over 1000 µM.

`CC(C)(C)/[N+]([O-])=C/c1ccccc1` [PBN, C-(phenyl)-N-(tert-butyl)nitrone, reference compound] registered an EC50 of over 1000 µM.

For the compound `COc1ccc(O)c(C(C)(C)C)c1` [BHA, 2(3)-tert-butylhydroquinone monomethyl ether, reference compound], the 50% effective concentration (EC50) lay in the range of 10 to 50 µM.

As for `[O-]/[N+](=C\CCSc1ccccc1)Cc1ccccc1` [Example 21, N-Benzyl-C-2-(phenylsulfanyl)ethyl nitrone], the EC50 lay in the range of 10 to 50 µM.

For `[O-]/[N+](=C\COc1ccccc1)C1CCCCC1` [Example 2, N-Cyclohexyl-C-(phenoxymethyl)nitrone], the EC50 lay within 50 to 100 µM.

`CC(C/C=[N+](\[O-])Cc1ccccc1)Sc1ccccc1` (stereo not drawn) [Example 24, N-Benzyl-C-2-(phenylsulfanyl)propyl nitrone] displayed an EC50 of under 10 µM.

Regarding `[O-]/[N+](=C\COCc1ccccc1)C1CCCCC1` [Example 15, N-Cyclohexyl-C-(benzyloxy)methyl nitrone], the EC50 was in the range of 10 to 50 µM.

`Cc1ccc(C(C)C)c(OC/C=[N+](\[O-])C(C)(C)C)c1` [Example 7, N-tert-Butyl-C-[(2-isopropyl-5-methyl-phenoxy)methyl]nitrone] registered a half-maximal effective concentration (EC50) of 50 to 100 µM.

`[O-]/[N+](=C\COCc1ccccc1)Cc1ccccc1` [Example 16, N-Benzyl-C-(benzyloxy)methyl nitrone] showed an EC50 of 50 to 100 µM.

`CC(C)(C)/[N+]([O-])=C/COCc1ccccc1` [Example 26, N-tert-Butyl-C-(benzyloxy)methyl nitrone]: the EC50 is 10 to 50 µM.

Take `COc1ccc(OC/C=[N+](\[O-])C2CCCCC2)cc1` [Example 5, N-Cyclohexyl-C-[(4-methoxy-phenoxy)methyl]nitrone]: the EC50 was under 10 µM.

Turning to `CC(C/C=[N+](\[O-])C1CCCCC1)Sc1ccccc1` (stereo not drawn) [Example 23, N-Cyclohexyl-C-2-(phenylsulfanyl)propyl nitrone], the EC50 lay in the range of 10 to 50 µM.

Compound `[O-]/[N+](=C\CCOc1ccccc1)Cc1ccccc1` [Example 19, N-Benzyl-C-2-(phenoxy)ethyl nitrone] yielded an EC50 of 100 to 1000 µM.

Regarding `[O-]/[N+](=C\COc1ccccn1)Cc1ccccc1` [Example 13, N-Benzyl-C-(pyridin-2-yloxy)methyl nitrone], the half-maximal effective concentration (EC50) is under 10 µM.

Regarding `[O-]/[N+](=C\COc1ccccn1)C1CCCCC1` [Example 12, N-Cyclohexyl-C-(pyridin-2-yloxy)methyl nitrone], the EC50 is under 10 µM.

For `CC(C)(C)/[N+]([O-])=C/COc1nccc2ccccc12` [Example 14], the EC50 fell in the range of 50 to 100 µM.

In turn, `Cc1ccc(C(C)C)c(OC/C=[N+](\[O-])Cc2ccccc2)c1` [Example 9, N-Benzyl-C-[(2-isopropyl-5-methyl-phenoxy)methyl]nitrone] displayed an EC50 of 50 to 100 µM.

`CC(C)(C)/[N+]([O-])=C/CCOc1ccccn1` [Example 25, N-tert-Butyl-C-2-(pyridin-2-yloxy)ethyl nitrone] displayed an EC50 of 10 to 50 µM.

As to `CC(C)(C)/[N+]([O-])=C/COc1ccccn1` [Example 11, N-tert-Butyl-C-(pyridin-2-yloxy)methyl nitrone], the EC50 is 10 to 50 µM.

For the compound `CC(C)(C)/[N+]([O-])=C/CCSc1ccccc1` [Example 20, N-tert-Butyl-C-2-(phenylsulfanyl)ethyl nitrone], the EC50 was under 10 µM.

As to `Cc1c(C)c2c(c(C)c1O)CCC(C)(C(=O)O)O2` (stereo not drawn) [Trolox, 6-hydroxy-2,5,7,8-tetramethylchromane-2-carboxylic acid, reference compound], the EC50 is under 10 µM.

With `COc1ccc(OC/C=[N+](\[O-])Cc2ccccc2)cc1` [Example 6, N-Benzyl-C-[(4-methoxy-phenoxy)methyl]nitrone], the EC50 was under 10 µM.

Turning to `[O-]/[N+](=C\COc1ccccc1)Cc1ccccc1` [Example 3, N-Benzyl-C-(phenoxymethyl)nitrone], the EC50 was in the range of 10 to 50 µM.

The compound `Cc1ccc(SC/C=[N+](\[O-])C(C)(C)C)cc1` [Example 10, N-tert-Butyl-C-[(4-methyl-thiophenoxy)methyl]nitrone] registered an EC50 of 10 to 50 µM.

Source of the values: US20050192281A1, “Nitrone compounds, prodrugs and pharmaceuticals compositons of the same to treat human disorders” (priority 2003, published 2005).
